In publication PMC11292626, “5-Fluoroindole Reduces the Bacterial Burden in a Murine Model of Mycobacterium tuberculosis Infection” (ACS Omega, 2024) one finds MIC data, which are given here for two compounds.

Converted amounts (≈) assume the structure as drawn.

Common to all, as to experiment: microbe, parasite or virus in culture
Common to all, as to assay type: cell-based

The subject of experiment [1] is M. tuberculosis PT12 strain. The note with it: Mycobacterium tuberculosis, PT12STRAIN, read-out: MIC PT12.
The test system of experiment [2] is M. tuberculosis PT2 strain. The note with it: Mycobacterium tuberculosis, PT2STRAIN, read-out: MIC PT2.
For experiment [3], the system named is M. tuberculosis PT20 strain. The note with it: Mycobacterium tuberculosis, PT20STRAIN, read-out: MIC PT20.

Take `Fc1ccc2[nH]ccc2c1` [Compound 1, 5-Fluoroindole]: the MIC in experiment [1], in experiment [2] and in experiment [3] was 4.7 µM (≈ 0.635 µg/mL) each time.
`NNC(=O)c1ccncc1` [INH, isoniazid, reference compound]: in experiment [1], the MIC is 146 µM (≈ 20 µg/mL).
